{"source": "patent US7897568B2", "about": "“Compositions for treatment of cancer” (priority 2006, dated 2011)", "format_in_all_cases": "cell-based", "key": {"SNCG-BubR1 interaction": {"biological_target": "T1, SNCG-BubR1 interaction (Homo sapiens, UniProt O76070)", "T1 construct": "expressed in transfected cells; host or cells: COS7", "assay": "Co-immunoprecipitation of SNCG and myc-BubR1 with or without EGFP-ANK in COS7 cells", "settings": "COS7 cells expressing BubR1, SNCG and EGFP-ANK"}, "MCF7-Neo cells": {"system": "MCF7-Neo cells", "assay": "Mitotic index and apoptosis by DAPI staining after paclitaxel", "settings": "neo cells expressing EGFP-ANK versus pEGFP, paclitaxel 18 hours", "method": "(§1) FIG. 7A through D show expression of EGFP-ANK disrupting the SNCG-mediated inhibition of mitotic checkpoint function as measured by microscopy and flow cytometry. The bar graphs show the expression of EGFP-ANK disrupting the SNCG-mediated inhibition of mitotic checkpoint function, using (FIG. 7A) DAPI and (FIG. 7B) anti-phospho-H^3 staining. For graphs of FIGS. 7A and 7B, the cells treated with 0.5 μM paclitaxel for 18 hours or untreated control cells were fixed with 4% paraformaldehyde for 20 minutes at room temperature. In both cases, the cells were then stained with 1 μg/ml of DAPI or 2 μg/ml anti-phospho-H3 primary and Texas Red goat anti-rabbit secondary antibodies (Invitrogen). Green fluorescent cells were identified for positive transfected cells. For each sample, 200-300 cells randomly chosen from 5 different views under a Nikon fluorescent microscope were scored for interphase, mitotic, or apoptotic based upon nuclei morphology. The data shown were derived from three separate transfections (p<0.01). […]\n(§2) Two days after transfection, cells were exposed to paclitaxel for 18 hours and numbers of mitotic arrested and apoptotic cells were counted after DAPI staining. […] These cells were also probed with rabbit polyclonal anti-phospho-H^3 and the mitotic index was calculated according to the proportion of the number of H^3 stained EGFP positive cells to total EGFP positive cells (FIG. 7B). […]"}, "MCF7-SNCG and T47D cells": {"system": "MCF7-SNCG and T47D cells", "assay": "Mitotic index by anti-phospho-H3 immunostaining (microscopy) after paclitaxel", "settings": "over-expressing EGFP-ANK in MCF7-SNCG and T47D cells", "method": "as §1, §2"}, "SNCG": {"biological_target": "SNCG (Homo sapiens, UniProt O76070)", "sequence (O76070 whole entry, the tested form may be a part)": "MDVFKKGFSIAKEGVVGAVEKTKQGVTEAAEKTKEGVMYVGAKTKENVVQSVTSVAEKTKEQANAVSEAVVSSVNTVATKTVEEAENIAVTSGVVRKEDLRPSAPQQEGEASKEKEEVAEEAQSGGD", "assay": "Co-localization of EGFP-ANK with SNCG by confocal microscopy", "design": "expressed in transfected cells; host or cells: MCF7-SNCG (MCF7 stably expressing SNCG)", "settings": "green fluorescent signals in transfected cells", "description": "FIGS. 5A through 5D show co-localization, co-immunoprecipitation (co-IP) and GST pull down experiments, using an enhance green fluorescent protein (EGFP)-ANK fusion protein, which confirm that SNCG associates with the ANK peptide in vivo. FIG. 5A is a western blot depicting detection of EGFP-ANK expression in COS7 cells. Lanes 2 and 3 were samples transfected with different clones, cl-4 and cl-8, respectively, of pEGFP-ANK plasmid. In FIG. 5B, MCF7-SNCG cells were transfected with pEGFP-ANK, fixed on a cover slip, permeabilized and probed with anti-SNCG and anti-GFP antibodies to observe co-localization. Fluorescent cells were visualized using an ×100 objective (oil) on an inverted confocal microscope (Leica). FIGS. 5C and 5D are western blots showing association of SNCG and ANK peptide as evidenced by co-IP of SNCG with EGFP-ANK in MCF7-SNCG and MCF7-neo cells. In these experiments, MCF7-SNCG and MCF7-neo cells were transfected with pEGFP-ANK or pEGFP plasmids. […]\nTo further examine the utility of the ANK peptide as a therapeutic tool against SNCG-caused drug resistance, this peptide was expressed in breast cancer cells. ANK peptide nucleotide sequences were cloned into pEGFP-C2 vector (pEGFP-ANK), and ANK peptide was expressed as a fusion protein with its amino-terminal linked to EGFP protein. […]"}}, "note": "Where no end group is shown, it is not given here."}
{"substance": "EGFP-ANK: ANK peptide expressed as a fusion protein with its amino-terminal linked to EGFP protein, approximately 37 kDa ({EGFP}-KGNSALHVASQHGHLGCIQTLVRYGANVTMQNHG)", "values": [{"measurement": "myc-BubR1 signal in anti-SNCG IP complex", "setting": "SNCG-BubR1 interaction", "value": "not detected"}, {"measurement": "mitotic index", "setting": "MCF7-Neo cells", "value": "did not significantly alter"}, {"measurement": "percentage of apoptotic cells", "setting": "MCF7-Neo cells", "value": "did not significantly alter"}, {"measurement": "sensitivity to paclitaxel by anti-phospho-H3 mitotic index", "setting": "MCF7-SNCG and T47D cells", "value": "increases in sensitivity to paclitaxel"}, {"measurement": "intracellular localization relative to SNCG", "setting": "SNCG", "value": "co-localized with SNCG in the cytoplasm"}]}
